From patent publication US7001888B2, “Compositions and methods for treating cancer” (Threshold Pharmaceuticals, Inc., priority 2002, dated 2006) come the findings set out here.

Several values for one entry are separate records, joined by “and”; a condition that tells them apart may be missing. Identical values can stand only once.

The test system of the assay is HepG2 cells. Description: Uptake of compounds by HepG2 cells. Type of assay: cell-based, human. The settings on record: for Uptake: 100 μM compound, 1 hour at 37° C., per mg protein, iodo conjugates by ICP-MS iodide content, 14C controls by scintillation counting; for Effect of D-glucose on uptake: D-glucose (10 mM) present; for Effect of L-glucose on uptake: L-glucose (10 mM) present; for Relative uptake among the compounds of the invention tested: comparison of Table 1 values. The method, then:
This example describes assays conducted to determine to what extent certain iodo-containing conjugates of the invention are taken up or transported into cancer cells. As a positive control, the uptake of ^14C-labeled-2-deoxy-D-glucose, a compound transported into human cells via glucose transporters and phosphorylated by hexokinase, and thus retained in the cell, was measured. As a negative control, the uptake of ^14C-labeled-3-O-methyl-glucose, which is transported into the cell via the glucose transporters but is not phosphorylated and so is not retained, was measured.
The control assay was conducted as follows. HepG2 cells were plated at a density of 2×10^5 cells per well into a 24 well plate, and the plates were maintained in 37° C. incubator (5% CO2) for 2 days. Prior to the uptake assay, the HepG2 cells were rinsed twice with pre-warmed (37° C.) phosphate-buffered saline (PBS) containing 1 mM CaCl2, 1 mM MgCl2 and 0.3% BSA. The rinsed HepG2 cells were then incubated with 270 μl of buffer (PBS/Ca/Mg/BSA) in the absence or presence of D-glucose (10 mM), L-glucose (10 mM), cytochalasin B (10 μM) or phloretin (0.3 mM) for 10 min at 37° C. Then, 30 μl of ^14C-2DG (final concentration: 100 μM, 0.1 μCi) were added to each well, and the cells were incubated for 1 hour at 37° C. The plate was placed on ice, and the cells were washed rapidly three times with cold PBS buffer (4° C.) containing 1 mM CaCl2 and MgCl2. The cells were then lysed with 150 μl of 1% Triton X-100, and the lysate was transferred to a scintillation vial. The well was rinsed with 200 μl ddH2O, and the rinsate was transferred to the same vial. Radioactivity was quantified using a scintillation counter. The protein concentration of each sample was determined using a BCA kit (Sigma, St Louis, Mo.). The amount of uptake of ^14C-2DG is reported below in units of nmole/mg protein/60 min.
To measure uptake of the iodo-containing compounds of the invention, HepG2 cells were plated at a density of 2×10^5 cells per well into a 24 well plate, and the plates were maintained in 37° C. incubator (5% CO2) for 2 days. Prior to the uptake assay, the HepG2 cells were rinsed twice with pre-warmed (37° C.) phosphate-buffered saline (PBS) containing 1 mM CaCl2, 1 mM MgCl2 and 0.3% BSA. The HepG2 cells were then incubated with 270 μl of buffer (PBS/Ca/Mg/BSA) in the absence or presence of D-glucose (10 mM), L-glucose (10 mM), cytochalasin B (10 μM) or phloretin (0.3 mM) for 10 min at 37° C. Then, 30 μl of each of the conjugates (final concentration: 100 μM) were added to individual test wells, and the plates were incubated for 1 hour at 37° C. The plate was placed on ice, and then, the cells were washed rapidly three times with cold PBS buffer (4° C.) containing 1 mM CaCl2 and MgCl2. The cells were lysed by the sequential addition of 150 μl of 1% Triton X-100 and 100 μl of ddH2O into each well. Lysates from six replicate wells were pooled together for each sample (volume per sample: 1.5 ml). The protein concentration of each sample was determined using a BCA kit (Sigma, St Louis, Mo.). Samples were diluted by addition of 4 ml of ddH2O (final volume per sample: 5.5 ml), and the samples treated with the iodo-containing conjugates were analyzed for iodide content by inductively coupled plasma-mass spectrometry (West Coast Analytical Service, Santa Fe Spring, Calif.). The amount of uptake of iodide-containing glucose conjugate is reported as nmole/mg protein/60 min.

For the compound “4-(iodophenyl)thiocarbamoyl glucosamine [TP022]”, the Uptake was 0.90 nmole/mg/60 min and 0.97 nmole/mg/60 min.
As for 4-iodobenzyl glucosamine [TP012], the Uptake was 2.8 +/− 0.14 (n = 4) nmole/mg/60 min, the “Effect of D-glucose on uptake” value was “not blocked”, the “Effect of L-glucose on uptake” value was “not blocked” and the “Relative uptake among the compounds of the invention tested” value is recorded as “most taken up by the cells”.
In the case of 4-iodohippuroyl glucosamine [TP011], the Uptake was found to be 0.5 nmole/mg/60 min, the “Effect of D-glucose on uptake” value is listed as “blocked” and the “Effect of L-glucose on uptake” value is “not L-glucose”.
The compound `CO[C@@H]([C@H](O)[C@H](O)CO)[C@@H](O)C=O` [3-O-Methyl Glucose, 3-O-methyl-glucose, reference compound] registered an Uptake of 0.2 nmole/mg/60 min.
On the same count and under the same terms, the figure for `O=CC[C@@H](O)[C@H](O)[C@H](O)CO` [Compound 2-DG, 2-deoxy-D-glucose, reference compound] is 51.8 +/− 4.3 (n = 3) nmole/mg/60 min; for `O=C(NCCN[C@H]1C(O)O[C@H](CO)[C@@H](O)[C@@H]1O)c1ccc(I)cc1` (stereo partly shown) [TP014] it is 1.2 nmole/mg/60 min.
On the same count and under the same terms, the result for `O=C(COCCOCCOCCOCCOCc1ccc(I)cc1)NC1C(O)O[C@H](CO)[C@@H](O)[C@@H]1O` (stereo partly shown) [TP017] reads 0.16 nmole/mg/60 min and 0.18 nmole/mg/60 min.
On to `OC[C@H]1OC(O)[C@H](N(C/C=C\I)C/C=C\I)[C@@H](O)[C@@H]1O` (stereo partly shown) [TP018, bis-Z-3-iodopropen-2-yl glucosamine], for which the Uptake is 2.28 nmole/mg/60 min and 2.31 nmole/mg/60 min; the “Relative uptake among the compounds of the invention tested” value is on record as “most taken up by the cells”.
`OC[C@H]1OC(O)[C@H](N(C/C=C/I)C/C=C/I)[C@@H](O)[C@@H]1O` (stereo partly shown) [TP019, bis-E-3-iodopropen-2-yl glucosamine]: the Uptake was 1.39 nmole/mg/60 min and 1.00 nmole/mg/60 min.
As to `O=S(=O)(N[C@H]1C(O)O[C@H](CO)[C@@H](O)[C@@H]1O)c1ccc(I)cc1` (stereo partly shown) [TP020, Pipsyl glucosamine], the Uptake was 0.83 nmole/mg/60 min and 0.81 nmole/mg/60 min.
